Experimental data published in publication PMC7216583 (Parasites & Vectors, 2020).
Where a name gives a salt, the structure may show the parent alone. Read-outs that look alike come from different tables or passages of the source.

Key:
[1] = test system: Toxoplasma gondii RH-2F tachyzoites; assay: microbe, parasite or virus in culture; settings: 72 h
[2] = test system: NaV1.8 channel; parameters: method as in S-inhibitor catalog; settings: vendor brief description; ref S-inhibitor catalog; cited from earlier work
[3] = test system: NAMPT; settings: read-out: IC50, NAMPT; vendor brief description; ref S-inhibitor catalog; cited from earlier work
[4] = test system: HER2; parameters: method as in library vendor description; settings: ref library vendor description; cited from earlier work
[5] = test system: HER1; parameters: method as in library vendor description; settings: ref library vendor description; cited from earlier work
[6] = target: mGlu5 receptor; parameters: method as in vendor brief description; settings: ref vendor brief description; cited from earlier work
[7] = test system: proteasome; parameters: method as in vendor brief description; settings: ref vendor brief description; cited from earlier work
[8] = test system: Cathepsin S; parameters: method as in vendor brief description; settings: ref vendor brief description; cited from earlier work
[9] = test system: Cathepsin L2; parameters: method as in vendor brief description; settings: ref vendor brief description; cited from earlier work
[10] = test system: Cathepsin L; parameters: method as in vendor brief description; settings: ref vendor brief description; cited from earlier work
[11] = test system: Cathepsin K; parameters: method as in vendor brief description; settings: ref vendor brief description; cited from earlier work
[12] = test system: Cathepsin B; parameters: method as in vendor brief description; settings: ref vendor brief description; cited from earlier work
[13] = test system: B-Raf; parameters: method as in vendor brief description; settings: ref vendor brief description; cited from earlier work
[14] = test system: c-Raf; parameters: method as in vendor brief description; settings: ref vendor brief description; cited from earlier work
[15] = test system: B-RafV600E; parameters: method as in vendor brief description; settings: ref vendor brief description; cited from earlier work
[16] = test system: PKCα; parameters: method as in library vendor description; settings: ref library vendor description; cited from earlier work
[17] = test system: PKCβ; parameters: method as in library vendor description; settings: ref library vendor description; cited from earlier work
[18] = test system: PKCγ; parameters: method as in library vendor description; settings: ref library vendor description; cited from earlier work
[19] = test system: PKCε; parameters: method as in library vendor description; settings: ref library vendor description; cited from earlier work
[20] = test system: Akt3; parameters: method as in vendor brief description; settings: ref vendor brief description; cited from earlier work
[21] = test system: Akt1; parameters: method as in vendor brief description; settings: ref vendor brief description; cited from earlier work
[22] = test system: GluR1 and GluR3; parameters: method as in vendor brief description; settings: ref vendor brief description; cited from earlier work
[23] = test system: FAAH; parameters: method as in vendor brief description; settings: human; ref vendor brief description; cited from earlier work
[24] = test system: FAAH; parameters: method as in vendor brief description; settings: rat; ref vendor brief description; cited from earlier work
[25] = target: FPTase (N-ras); parameters: method as in S-inhibitor catalog; settings: vendor brief description; ref S-inhibitor catalog; cited from earlier work
[26] = target: FPTase (H-ras); parameters: method as in S-inhibitor catalog; settings: vendor brief description; ref S-inhibitor catalog; cited from earlier work
[27] = target: FPTase (K-ras-4B); parameters: method as in S-inhibitor catalog; settings: vendor brief description; ref S-inhibitor catalog; cited from earlier work
[28] = test system: Flt3; parameters: method as in S-inhibitor catalog; settings: vendor brief description; ref S-inhibitor catalog; cited from earlier work
[29] = test system: FGFR1; settings: read-out: IC50, FGFR1; vendor brief description; ref S-inhibitor catalog; cited from earlier work
[30] = test system: Ron; parameters: method as in S-inhibitor catalog; settings: vendor brief description; ref S-inhibitor catalog; cited from earlier work
[31] = test system: c-Met; parameters: method as in S-inhibitor catalog; settings: vendor brief description; ref S-inhibitor catalog; cited from earlier work
[32] = test system: PDGFRβ; parameters: method as in S-inhibitor catalog; settings: vendor brief description; ref S-inhibitor catalog; cited from earlier work
[33] = test system: Flt1; parameters: method as in S-inhibitor catalog; settings: vendor brief description; ref S-inhibitor catalog; cited from earlier work
[34] = test system: Mer; parameters: method as in S-inhibitor catalog; settings: vendor brief description; ref S-inhibitor catalog; cited from earlier work
[35] = test system: FGFR3; parameters: method as in S-inhibitor catalog; settings: vendor brief description; ref S-inhibitor catalog; cited from earlier work
[36] = in vitro; settings: human, Host viability (%) mean
[37] = test system: FGFR2; parameters: method as in S-inhibitor catalog; settings: vendor brief description; ref S-inhibitor catalog; cited from earlier work
[38] = target: P2Y6 receptor; settings: read-out: IC50 P2Y6 receptor; ref vendor brief description; cited from earlier work
[39] = test system: IGF-1R; parameters: method as in vendor brief description; settings: ref vendor brief description; cited from earlier work
[40] = test system: FAK; parameters: method as in vendor brief description; settings: ref vendor brief description; cited from earlier work
[41] = target: DNA methyltransferase; parameters: method as in vendor brief description; settings: ref vendor brief description; cited from earlier work
[42] = target: PKCθ; parameters: method as in S-inhibitor catalog; settings: vendor brief description; ref S-inhibitor catalog; cited from earlier work
[43] = test system: AhR; settings: cited from earlier work
[44] = test system: EGFR; parameters: method as in S-inhibitor catalog; settings: vendor brief description; ref S-inhibitor catalog; cited from earlier work
[45] = test system: HER2; settings: vendor brief description; ref S-inhibitor catalog; cited from earlier work
[46] = test system: GSK3; parameters: method as in vendor brief description; settings: ref vendor brief description; cited from earlier work
[47] = test system: CETP; parameters: method as in S-inhibitor catalog; settings: vendor brief description; ref S-inhibitor catalog; cited from earlier work
[48] = test system: mGlu5; parameters: method as in S-inhibitor catalog; settings: vendor brief description; ref S-inhibitor catalog; read-out: EC50, mGlu5 allosteric modulator; cited from earlier work
[49] = test system: mGlu4; parameters: method as in vendor brief description; settings: ref vendor brief description; cited from earlier work
[50] = test system: JAK2; parameters: method as in S-inhibitor catalog; settings: in HEL cells; vendor brief description; ref S-inhibitor catalog; cited from earlier work
[51] = test system: Stat3; parameters: method as in S-inhibitor catalog; settings: in HEL cells; vendor brief description; ref S-inhibitor catalog; cited from earlier work
[52] = read-out: Parasite inhibition (%) mean, preliminary screen of compound library, mean
[53] = read-out: Parasite inhibition (%) mean, preliminary screen, mean

COc1cc(NC(=O)c2ccc(-c3ccc(Cl)cc3)o2)cc(OC)c1 [A-803467]
inhibition of growth at 5 µM [1, 52]: 0.3%
IC50 [2]: 8 nM

O=C(/C=C/c1cccnc1)NCCCCC1CCN(C(=O)c2ccccc2)CC1 [APO866 (FK866)]
inhibition of growth at 5 µM [1, 52]: 10.4%

Cc1c(NC(=O)OC[C@@H]2COCCN2)cn2ncnc(Nc3ccc4c(cnn4Cc4cccc(F)c4)c3)c12 [BMS-599626 (AC480)]
inhibition of growth at 5 µM [1, 53]: 39.6%
IC50 [4]: 30 nM
IC50 [5]: 20 nM

Cc1nc(C#Cc2ccnc(Cl)c2)c(C)n1-c1ccc(OC(F)(F)F)cc1 [CTEP]
inhibition of growth at 5 µM [1, 52]: 2.4%
IC50 [6]: 2.2 nM

CC(C)C[C@H](NC(=O)[C@H](CCc1ccccc1)NC(=O)CN1CCOCC1)C(=O)N[C@@H](Cc1ccccc1)C(=O)N[C@@H](CC(C)C)C(=O)[C@@]1(C)CO1 [Carfilzomib (PR-171)]
inhibition of growth at 5 µM [1, 52]: -3.5%
IC50 [7]: < 5 nM

Cn1nc(C(C)(C)C)cc1C(=O)N[C@@H](Cc1cccc(Cl)c1)C(=O)NCC#N [Cathepsin Inhibitor 1]
inhibition of growth at 5 µM [1, 52]: 21.5%
pIC50 Cathepsin S [8]: 6.0
pIC50 Cathepsin L2 [9]: 6.7
pIC50 Cathepsin L [10]: 7.9
pIC50 Cathepsin K [11]: 5.5
pIC50 Cathepsin B [12]: 5.2

CC(C)(C)c1nc(-c2cccc(NS(=O)(=O)c3c(F)cccc3F)c2F)c(-c2ccnc(N)n2)s1 [Dabrafenib (GSK2118436)]
inhibition of growth at 5 µM [1, 52]: 0.8%
IC50 [14]: 5 nM

Cn1cc(C2=C(c3cn(C4CCN(Cc5ccccn5)CC4)c4ccccc34)C(=O)NC2=O)c2ccccc21 [Enzastaurin (LY317615)]
inhibition of growth at 5 µM [1, 53]: 11.4%
IC50 [17]: 6 nM

CC(C)NC[C@@H](C(=O)N1CCN(c2ncnc3c2[C@H](C)C[C@H]3O)CC1)c1ccc(Cl)cc1 [GDC-0068]
inhibition of growth at 5 µM [1, 52]: 35.4%

NCCCCCNCC12CC3CC(CC(C3)C1)C2 [IEM 1754 dihydrobroMide]
inhibition of growth at 5 µM [1, 52]: 15.8%
IC50 [22]: 6000 nM

O=C(Nc1ccccc1)N1CCN(c2nc(-c3ccccc3)ns2)CC1 [JNJ 1661010]
inhibition of growth at 5 µM [1, 52]: 10.5%
IC50 [23]: 12 nM
IC50 [24]: 10 nM

NC(=O)N1CCC(CC(=O)N2CCC([C@H]3c4ncc(Br)cc4CCc4cc(Cl)cc(Br)c43)CC2)CC1 [Lonafarnib (SCH66336)]
inhibition of growth at 5 µM [1, 52]: 0.4%
IC50 [25]: 2.8 nM
IC50 [26]: 1.9 nM
IC50 [27]: 5.2 nM

CN(C[C@@H]1COCCO1)S(=O)(=O)Nc1ccc2ccc3ncc(-c4cnn(C)c4)cc3c(=O)c2c1 [MK-2461]
IC50 [28]: 22 nM
inhibition of growth at 5 µM [1, 52]: 79.8%
IC50 [29]: 65 nM
IC50 [30]: 7 nM
IC50 [31]: 2.5 nM
IC50 [32]: 22 nM
IC50 [33]: 10 nM
IC50 [34]: 24 nM
IC50 [35]: 50 nM
viability at 72 h [36]: 60.3%
IC50 [37]: 39 nM

S=C=Nc1cccc(NC(=S)NCCCCNC(=S)Nc2cccc(N=C=S)c2)c1 [MRS 2578]
inhibition of growth at 5 µM [1, 52]: 0.2%
IC50 [38]: 37 nM

CNC(=O)c1ccccc1Nc1nc(Nc2ccc(N3CCOCC3)cc2OC)ncc1Cl [NVP-TAE226]
inhibition of growth at 5 µM [1, 52]: 66.8%
IC50 [40]: 5.5 nM

O=C(O)[C@H](Cc1c[nH]c2ccccc12)N1C(=O)c2ccccc2C1=O [RG108]
inhibition of growth at 5 µM [1, 52]: 2.5%
IC50 [41]: 115 nM

CN1CCN(c2nc(C3=C(c4c[nH]c5ccccc45)C(=O)NC3=O)c3ccccc3n2)CC1 [Sotrastaurin (AEB071)]
inhibition of growth at 5 µM [1, 52]: 40.4%
Ki [42]: 0.22 nM

CC(C)n1cnc2c(NCCc3ccc(O)cc3)nc(-c3csc4ccccc34)nc21 [StemRegenin 1]
inhibition of growth at 5 µM [1, 52]: 0.2%
IC50 [43]: 127 nM

CC(C)(O)CC(=O)NCCn1ccc2ncnc(Nc3ccc(Oc4cccc(C(F)(F)F)c4)c(Cl)c3)c21 [TAK-285]
inhibition of growth at 5 µM [1, 52]: -12.2%
IC50 [45]: 17 nM

O=c1sn(-c2cccc3ccccc23)c(=O)n1Cc1ccccc1 [Tideglusib]
inhibition of growth at 5 µM [1, 52]: 52.8%

CCOC(=O)N1c2ccc(C(F)(F)F)cc2[C@H](N(Cc2cc(C(F)(F)F)cc(C(F)(F)F)c2)C(=O)OC)C[C@H]1CC [Torcetrapib (CP-529414)]
inhibition of growth at 5 µM [1, 52]: 22.1%
IC50 [47]: 37 nM

CCCCOc1ccc(C(=O)Nc2ccc(F)cc2F)cc1 [VU 0357121]
inhibition of growth at 5 µM [1, 52]: 0.1%
EC50 [48]: 33 nM

O=C(Nc1cccc(Cl)c1)c1ccccn1 [VU 0364770]
inhibition of growth at 5 µM [1, 52]: 1.8%
EC50 [49]: 1100 nM

C[C@H](NC(=O)/C(C#N)=C/c1cccc(Br)n1)c1ccccc1 [WP1066]
inhibition of growth at 5 µM [1, 52]: -8.7%
IC50 [50]: 2300 nM
IC50 [51]: 2430 nM
